Experiments:
[1] = test system: human colon cancer SW48 cells; test: Proliferation suppressive action on human colon cancer SW48 cells (Trypan blue viable cell count); assay type: cell-based; details: 500 nM, 3 days; FIG. 4
Description: Human colon cancer SW48 cells were cultured in a 5% CO2 incubator at 37° C. using DMEM (FUJIFILM Wako Pure Chemical Corporation, Japan) supplemented with 10% bovine fetal serum (FBS, HyClone, GE Healthcare Life Sciences, Buckinghamshire, England) and 1% penicillin/streptomycin (FUJIFILM Wako Pure Chemical Corporation, respectively 100 units/mL, 100 μg/mL). SW48 cells were suspended in trypsin (Lonza, Walkersville, MD, USA), and 1×10^5 cells were seeded in a 6-well dish (TPP, Trasadingen, Switzerland). After 24 hr, a group of the compounds of the present invention (compound (I-4), compound (I-5), and compound (I-10)) diluted with a culture medium to a final concentration of 500 nM was allowed to act for 3 days. Proliferation of these cells was evaluated using Trypan blue (FUJIFILM Wako Pure Chemical Corporation, Japan) staining method and counting the number of viable cells using a Countess II automatic cell counter (Thermo Fisher Scientific, Waltham, MA).

phosphorylated AMPK [2] = test: Phosphorylated AMPK increasing action on human colon cancer SW48 cells (Western blot, phospho-AMPKα Thr172); assay type: cell-based; details: 100 nM, 2 days; FIG. 6
Description: Human colon cancer SW48 cells were cultured in a 5% CO2 incubator at 37° C. using DMEM (FUJIFILM Wako Pure Chemical Corporation, Japan) supplemented with 10% bovine fetal serum (FBS, HyClone, GE Healthcare Life Sciences, Buckinghamshire, England) and 1% penicillin/streptomycin (FUJIFILM Wako Pure Chemical Corporation, respectively 100 units/mL, 100 μg/mL). SW48 cells were suspended in trypsin (Lonza, Walkersville, MD, USA), and 1×10^5 cells were seeded in a 6-well dish (TPP, Trasadingen, Switzerland). After 24 hr, the cells were treated with the compounds of the present invention (compound (I-4), compound (I-5), and compound (I-10)) diluted with a culture medium to a final concentration of 100 nM and allowed to act for 2 days. Cellular proteins were dissolved in 1% SDS buffer supplemented with a protease inhibitor cocktail mix (Nacalai Tesque, Kyoto, Japan), and SDS-PAGE was performed. After transferring to PVDF membrane (Millipore, Billerica, MA, USA), Western blot analysis was performed using anti-phospho-AMPKα (Thr172, 1:1000, #2535; CST) antibody. GAPDH protein was analyzed as a loading control.

[3] = test system: human colon cancer SW48 transplanted tumors; test: In vivo antitumor effect in a human colon cancer SW48 cell subcutaneous transplantation model; parameters: species or system mouse; details: CB17 SCID mice, 20 mg/kg intraperitoneally every day from 4 days after transplantation, 3.5 weeks; FIG. 7(A),(B)
Description: (§1) According to the method described in a literature (Ii H, et al. ChemMedChem. (2018) 13(2):155-163), human colon cancer SW48 cells were cultured in a 5% CO2 incubator at 37° C. using DMEM (FUJIFILM Wako Pure Chemical Corporation, Japan) supplemented with 10% bovine fetal serum (FBS, HyClone, GE Healthcare Life Sciences, Buckinghamshire, England) and 1% penicillin/streptomycin (FUJIFILM Wako Pure Chemical Corporation, respectively 100 units/mL, 100 μg/mL). SW48 cells were suspended in trypsin (Lonza, Walkersville, MD, USA), and 3×10^6 cells were suspended in 100 μL of PBS/Matrigel (1:1, Corning, Corning, NY, USA), and subcutaneously injected into 6-week-old male or female CB17 SCID mice (Japan Clea, Osaka, Japan) to create a subcutaneous transplantation tumor model. The compound of the present invention was dissolved in 10% ethanol (FUJIFILM Wako Pure Chemical Corporation, Japan), 10% dimethyl sulfoxide (Nacalai Tesque, Kyoto, Japan), 10% Cremophor EL (Sigma Chemical, St. Louis, MO, USA), and 70% saline (Nacalai Tesque, Kyoto, Japan), and administered intraperitoneally at a dose of 20 mg/kg every day from 4 days after transplantation. The major diameter and minor diameter were measured twice a week using calipers, and the tumor volume was calculated by 0.5× major diameter×minor diameter^2. 3.5 Weeks after cell transplantation, the tumor was removed and the weight was measured. […]

[4] = test system: AMP/ATP ratio of human colon cancer SW48 cells; test: AMP/ATP ratio increasing action on human colon cancer SW48 cells (AMP Glo / Cell Titer Glo); assay type: cell-based; details: 500 nM and 1 μM, 2 days; FIG. 5
Description: Human colon cancer SW48 cells were cultured in a 5% CO2 incubator at 37° C. using DMEM (FUJIFILM Wako Pure Chemical Corporation, Japan) supplemented with 10% bovine fetal serum (FBS, HyClone, GE Healthcare Life Sciences, Buckinghamshire, England) and 1% penicillin/streptomycin (FUJIFILM Wako Pure Chemical Corporation, respectively 100 units/mL, 100 μg/mL). SW48 cells were suspended in trypsin (Lonza, Walkersville, MD, USA), and 1×10^5 cells were seeded in a 6-well dish (TPP, Trasadingen, Switzerland). After 24 hr, the cells were treated with the compound of the present invention (compound (I-5)) diluted with a culture medium to final concentrations of 500 nM and 1 μM and allowed to act for 2 days. Intracellular AMP was measured with the AMP Glo assay kit (Promega, Madison, WI, USA), and intracellular ATP was measured with the Cell Titer Glo Luminescent Cell Viability Assay Kit (Promega, Madison, WI, USA) using a SYNERGY HT (BioTek Instruments, Inc. Winooski, VT, USA), and the AMP/ATP ratio was calculated.

[5] = test system: human glioblastoma cell line U251; test: Proliferation of human glioblastoma U251 cells, compound alone or combined with temozolomide (viable cell count, CI/isobologram); assay type: cell-based; details: temozolomide 12.5, 25, 50 μM with compound 25, 50, 100 nM, 6 days; CI < 0.9 = synergistic; FIG. 2
Description: According to the method described in a literature (Matsumura K, et al. BMC Cancer (2016) 16(1):748.), human glioblastoma cell line U251 was cultured in a 5% CO2 incubator at 37° C. using DMEM (FUJIFILM Wako Pure Chemical Corporation, Japan) supplemented with 10% bovine fetal serum (FBS, HyClone, GE Healthcare Life Sciences, Buckinghamshire, England) and 1% penicillin/streptomycin (FUJIFILM Wako Pure Chemical Corporation, respectively 100 units/mL, 100 μg/mL). Temozolomide (Sigma Chemical, St. Louis, MO, USA) which is used as a standard drug for the treatment of glioblastoma was dissolved at 200 mM using dimethyl sulfoxide (Nacalai Tesque, Kyoto, Japan) as a solvent. […] Proliferation of these cells was evaluated using Trypan blue (FUJIFILM Wako Pure Chemical Corporation, Japan) staining method and counting the number of viable cells using a Countess II automatic cell counter (Thermo Fisher Scientific, Waltham, MA). Combination index (CI) values of temozolomide and the compound of the present invention were calculated using CalcuSyn 2.11 software (Biosoft, Cambridge, UK), and Isobologram analysis was performed. The CI value of less than 0.9 was determined to be a synergistic effect, the CI value of 0.9 or more and less than 1.1 was determined to be an additive effect, and the CI value of 1.1 or more was determined to be an antagonistic effect.

[6] = test system: glioblastoma transplanted tumor; test: In vivo antitumor effect in a mouse glioblastoma transplantation model (luciferase imaging); details: C57BL6J mouse, 10 mg/kg intraperitoneally three times a week, three weeks after transplantation; FIG. 3
Description: According to the method described in a literature (Tanigawa S, et al. Cancer Gene Therapy (2021). https://doi.org/10.1038/s41417-020-00282-5), murine glioblastoma stem cells introduced with the Luciferase gene were established, and cultured as neurosphere cells in a 5% CO2 incubator at 37° C. using Neurobasal medium supplemented with B27 and N2 supplements (Gibco/Thermo Fisher Scientific, Waltham, MA, USA) and 10 ng/mL of EGF and bFGF (R&D Systems, Minneapolis, MN, USA). The neurospheres were made into a single cell suspension by Accutase (Innovative Cell Technologies, San Diego, CA, USA) treatment, and 1×10^3 cells suspended in 2 μL of PBS were transplanted into the cerebrum of a 6-week-old male C57BL6J mouse (Oriental Bioservice, Kyoto, Japan) fixed on a Stereotaxic Instrument (51730D; Stoelting Co., Wood Dale, IL, USA) using a 30-gauge Hamilton syringe with autoinjector (Legato130; KD Scientific, Holliston, MA, USA). […] Three weeks after cell transplantation, D-luciferin was administered intraperitoneally at a dose of 150 mg/kg and in vivo tumor size was evaluated using the IVIS Lumina XR imaging system (Summit Pharmaceuticals International, Tokyo, Japan).

[7] = Body weight change on daily intraperitoneal administration in the SW48 transplantation model; assay type: in vivo, mouse; details: CB17 SCID mice, 20 mg/kg daily intraperitoneally for 3.5 weeks; FIG. 7(C)
Description: as §1

phosphorylated AMPK [8] = test: Phosphorylated AMPK increasing action on human lung cancer A549 cells (Western blot, phospho-AMPKα Thr172); assay type: cell-based; details: 100 nM to 1 μM, 3 days; FIG. 9
Description: Human lung cancer A549 cells were cultured in a 5% CO2 incubator at 37° C. using DMEM (FUJIFILM Wako Pure Chemical Corporation, Japan) supplemented with 10% bovine fetal serum (FBS, HyClone, GE Healthcare Life Sciences, Buckinghamshire, England) and 1% penicillin/streptomycin (FUJIFILM Wako Pure Chemical Corporation, respectively 100 units/mL, 100 μg/mL). A549 cells were suspended in trypsin (Lonza, Walkersville, MD, USA), and 1×10^5 cells were seeded in a 6-well dish (TPP, Trasadingen, Switzerland). After 24 hr, they were treated with the compound of the present invention diluted in a culture medium to final concentrations of 100 nM to 1 μM and allowed to act for 3 days. Cellular proteins were dissolved in 1% SDS buffer supplemented with a protease inhibitor cocktail mix (Nacalai Tesque, Kyoto, Japan), and SDS-PAGE was performed. After transferring to PVDF membrane (Millipore, Billerica, MA, USA), Western blot analysis was performed using anti-phospho-AMPKα (Thr172, 1:1000, #2535; CST) antibody. GAPDH protein was analyzed as a loading control.

Structure (SMILES)	proliferation of human colon cancer SW48 cells (number of viable cells) [1]	phosphorylated AMPK in SW48 cells (phosphorylated AMPK [2])	tumor volume and tumor mass of SW48 subcutaneous transplanted tumors [3]	AMP/ATP ratio of SW48 cells [4]	combination effect with temozolomide on proliferation of U251 cells (combination index, isobologram) [5]	in vivo tumor size of transplanted glioblastoma [6]	body weight change [7]	phosphorylated AMPK in A549 cells (phosphorylated AMPK [8])
CCCCCCCCCOCCOCCOCCOCCCCCCCCCCCCNC(=O)c1ccsc1 [I-4, N-(13,16,19,22-tetraoxahentriacontan-1-yl)thiophene-3-carboxamide]	proliferation suppressive action	phosphorylated AMPK increasing action	–	–	–	–	–	–
CCCCCCCCCCOCCOCCOCCOCCCCCCCCCCCCNC(=O)c1ccsc1 [I-5, N-(13,16,19,22-tetraoxadotriacontan-1-yl)thiophene-3-carboxamide]	proliferation suppressive action	phosphorylated AMPK increasing action	suppresses proliferation of human colon cancer SW48 transplanted tumors	has action to increase the AMP/ATP ratio	synergistically potentiates the proliferation suppressive ability of temozolomide	suppresses proliferation of glioblastoma transplanted tumor	no significant body weight change	–
COCCOCCOCCOCCCCCCCCCCCCNC(=O)c1csc(C)c1 [I-10, N-(13,16,19,22-tetraoxatricosan-1-yl)-5-methylthiophene-3-carboxamide]	proliferation suppressive action	phosphorylated AMPK increasing action	–	–	–	–	–	–
CCCCCCCCCCOCCOCCOCCOCCOCCCCCCCCCNC(=O)c1ccsc1 [I-16, N-(10,13,16,19,22-pentaoxadotriacontan-1-yl)thiophene-3-carboxamide]	–	–	–	–	–	–	–	phosphorylated AMPK increasing action

From US12622891B2, “AMP-activated protein kinase activator” (KYOTO PHARMACEUTICAL UNIVERSITY, priority 2021, dated 2026)
